Reference: ChEMBL document CHEMBL1781918, “Quinazolin-4-piperidin-4-methyl sulfamide PC-1 inhibitors: alleviating hERG interactions through structure based design” (Bioorg Med Chem Lett, 2009)

How the values were obtained:
[1] = molecular target: T1, Ectonucleotide pyrophosphatase/phosphodiesterase family member 1 (Homo sapiens) (UniProt P22413); assay: Inhibition of PC1 by in vitro Kinase-Glo assay
T1 sequence (whole entry): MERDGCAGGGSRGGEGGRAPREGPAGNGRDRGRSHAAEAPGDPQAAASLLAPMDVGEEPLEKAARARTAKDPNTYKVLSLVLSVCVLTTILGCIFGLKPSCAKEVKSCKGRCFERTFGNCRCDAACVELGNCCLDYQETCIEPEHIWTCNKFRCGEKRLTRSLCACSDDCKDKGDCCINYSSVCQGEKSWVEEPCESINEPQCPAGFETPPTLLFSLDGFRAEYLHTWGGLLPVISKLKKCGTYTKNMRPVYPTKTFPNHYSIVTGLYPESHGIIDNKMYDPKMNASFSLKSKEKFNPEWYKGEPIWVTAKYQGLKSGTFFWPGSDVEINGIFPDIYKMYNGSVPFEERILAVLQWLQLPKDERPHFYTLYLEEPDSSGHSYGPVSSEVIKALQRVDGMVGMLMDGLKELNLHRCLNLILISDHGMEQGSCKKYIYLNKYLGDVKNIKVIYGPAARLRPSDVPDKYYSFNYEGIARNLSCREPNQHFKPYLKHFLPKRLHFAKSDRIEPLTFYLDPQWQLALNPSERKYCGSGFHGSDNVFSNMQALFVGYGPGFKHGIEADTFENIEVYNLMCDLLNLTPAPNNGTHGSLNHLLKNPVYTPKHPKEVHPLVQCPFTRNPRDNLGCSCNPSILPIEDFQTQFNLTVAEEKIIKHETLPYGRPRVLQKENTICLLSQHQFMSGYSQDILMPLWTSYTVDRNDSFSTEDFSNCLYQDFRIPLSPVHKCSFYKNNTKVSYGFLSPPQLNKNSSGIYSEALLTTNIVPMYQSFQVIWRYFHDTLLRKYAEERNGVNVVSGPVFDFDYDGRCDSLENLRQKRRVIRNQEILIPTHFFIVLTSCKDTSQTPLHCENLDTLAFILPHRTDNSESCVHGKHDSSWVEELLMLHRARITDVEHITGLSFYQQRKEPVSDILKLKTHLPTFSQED

[2] = molecular target: Voltage-gated inwardly rectifying potassium channel KCNH2 (Homo sapiens, UniProt Q12809); assay: Displacement of [3H]-dofetilid from human ERG expressed in HEK293 cells; type: cell-based
[3] = Selectivity for PC1 to human ERG channel

Voltage-gated inwardly rectifying potassium channel KCNH2, sequence (Q12809 whole entry): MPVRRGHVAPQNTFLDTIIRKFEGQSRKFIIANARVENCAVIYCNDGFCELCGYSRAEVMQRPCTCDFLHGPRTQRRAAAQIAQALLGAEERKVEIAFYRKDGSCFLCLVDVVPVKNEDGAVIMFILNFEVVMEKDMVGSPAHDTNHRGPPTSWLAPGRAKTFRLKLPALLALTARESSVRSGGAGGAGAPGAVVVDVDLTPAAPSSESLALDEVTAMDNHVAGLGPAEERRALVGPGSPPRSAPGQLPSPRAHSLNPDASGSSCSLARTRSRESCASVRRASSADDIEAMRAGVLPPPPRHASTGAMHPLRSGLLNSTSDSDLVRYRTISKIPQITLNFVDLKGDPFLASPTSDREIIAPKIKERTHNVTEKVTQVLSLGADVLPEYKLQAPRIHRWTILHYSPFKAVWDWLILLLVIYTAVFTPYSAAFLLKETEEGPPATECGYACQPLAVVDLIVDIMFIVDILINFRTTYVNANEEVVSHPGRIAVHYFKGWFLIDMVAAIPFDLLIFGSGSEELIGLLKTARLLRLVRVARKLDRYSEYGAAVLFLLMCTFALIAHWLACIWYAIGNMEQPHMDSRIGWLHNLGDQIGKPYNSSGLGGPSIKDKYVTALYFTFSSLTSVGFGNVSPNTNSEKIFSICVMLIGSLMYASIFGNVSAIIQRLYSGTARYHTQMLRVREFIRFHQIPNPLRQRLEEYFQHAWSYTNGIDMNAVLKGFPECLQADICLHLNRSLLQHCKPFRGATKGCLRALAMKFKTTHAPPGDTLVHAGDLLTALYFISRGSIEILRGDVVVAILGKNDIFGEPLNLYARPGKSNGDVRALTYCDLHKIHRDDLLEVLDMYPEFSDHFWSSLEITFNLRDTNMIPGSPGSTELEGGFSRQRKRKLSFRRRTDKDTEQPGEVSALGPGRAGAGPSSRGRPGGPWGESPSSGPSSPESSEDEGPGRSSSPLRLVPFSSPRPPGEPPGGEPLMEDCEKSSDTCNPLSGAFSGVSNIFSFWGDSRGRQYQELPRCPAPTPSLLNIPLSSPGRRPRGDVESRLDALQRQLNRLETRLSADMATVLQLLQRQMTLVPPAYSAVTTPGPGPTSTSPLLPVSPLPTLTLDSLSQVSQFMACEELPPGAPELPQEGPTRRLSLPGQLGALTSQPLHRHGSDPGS

Compound | INH [1] [µM] | INH [2] [µM] | Ratio [3]
COc1cc2ncnc(N3CCC(NS(N)(=O)=O)CC3)c2cc1OC | > 10 | > 10 | –
COc1cc2nc(/C=C/c3cccnc3)nc(N3CCC(CCNS(N)(=O)=O)CC3)c2cc1OC | 0.0353 | 0.276 | 8
Cc1nccn1-c1nccc(N2CCC(CCNS(N)(=O)=O)CC2)n1 | 2.45 | 6.867 | –
COc1ccc2c(N3CCC(CNS(N)(=O)=O)CC3)ncnc2c1 | 0.166 | > 10 | > 60
COc1cc2ncnc(N3CCC(CCNS(N)(=O)=O)CC3)c2cc1OC | 0.0362 | 0.601 | 17
COc1cc2nc(/C=C/c3cccnc3)nc(N3CCC(CNS(N)(=O)=O)CC3)c2cc1OC | 0.063 | 3.296 | 52
COc1ccc2c(N3CCC(CCNS(N)(=O)=O)CC3)ncnc2c1 | 0.187 | 0.1202 | 1
NS(=O)(=O)NCCC1CCN(c2ncnc3ccc(Cl)cc23)CC1 | 5.98 | – | –
Cc1nccn1-c1cc(N2CCC(CCNS(N)(=O)=O)CC2)ncn1 | 0.6 | > 10 | > 16
CCc1nc(N2CCC(CCNS(N)(=O)=O)CC2)c2cc(OC)c(OC)cc2n1 | 0.214 | – | –
NS(=O)(=O)NCCC1CCN(c2ncnc3cc(Cl)ccc23)CC1 | > 10 | 3.4 | –
Cc1nccn1-c1cc(N2CCC(CNS(N)(=O)=O)CC2)ncn1 | > 10 | > 10 | –
COc1cc2ncnc(N3CCC(CNS(N)(=O)=O)CC3)c2cc1OC | 0.061 | > 10 | > 160
